Consider 29 molecules from patent publication US11649255B2, “Indazoles as hematopoietic progenitor kinase 1 (HPK1) inhibitors and methods using same” (1st Biotherapeutics, Inc., priority 2020, dated 2023).

For orientation: IC50 means the midpoint of a concentration-inhibition curve.

Each structure is given as a SMILES string. Structures can show the parent of a compound that is named as a salt.

Sequence of recombinant human HPK1 (Q92918 whole entry): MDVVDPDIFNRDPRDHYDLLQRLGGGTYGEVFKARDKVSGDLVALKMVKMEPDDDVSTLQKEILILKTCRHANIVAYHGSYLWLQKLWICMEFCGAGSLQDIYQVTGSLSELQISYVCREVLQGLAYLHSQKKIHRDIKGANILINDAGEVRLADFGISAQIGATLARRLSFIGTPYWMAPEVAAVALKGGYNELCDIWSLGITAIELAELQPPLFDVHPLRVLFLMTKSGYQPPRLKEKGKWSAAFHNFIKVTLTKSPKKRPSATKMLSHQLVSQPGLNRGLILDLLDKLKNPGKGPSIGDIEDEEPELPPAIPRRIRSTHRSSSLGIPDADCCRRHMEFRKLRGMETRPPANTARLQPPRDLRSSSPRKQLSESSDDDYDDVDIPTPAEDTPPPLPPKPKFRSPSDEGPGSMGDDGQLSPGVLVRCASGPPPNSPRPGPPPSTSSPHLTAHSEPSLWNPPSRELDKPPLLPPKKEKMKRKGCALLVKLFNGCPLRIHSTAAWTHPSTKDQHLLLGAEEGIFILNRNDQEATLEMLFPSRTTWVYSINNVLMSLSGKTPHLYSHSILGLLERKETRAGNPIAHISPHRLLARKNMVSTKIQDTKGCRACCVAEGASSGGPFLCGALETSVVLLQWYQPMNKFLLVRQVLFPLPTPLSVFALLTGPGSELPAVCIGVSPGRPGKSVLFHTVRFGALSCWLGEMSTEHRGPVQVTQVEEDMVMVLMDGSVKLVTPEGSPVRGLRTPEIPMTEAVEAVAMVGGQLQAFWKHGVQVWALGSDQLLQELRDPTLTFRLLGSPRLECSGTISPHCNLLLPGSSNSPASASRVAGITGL

The assay has as its target recombinant human HPK1 (Homo sapiens (Human), UniProt Q92918). Description: HPK1 kinase assay (ADP-Glo). In kind it is biochemical. As to conditions: 25 μM ATP, MBP substrate. Summed up: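 Activity was read as ADP formed, detected by ADP-Glo luminescence after the reaction of 5 ng recombinant human HPK1 with MBP and ATP (stocks 0.5 μg/μl and 25 μM) for 40 min at 30 °C. Buffer was Tris pH 7.5 with MgCl2, BSA and DTT, with compound in 0.5% DMSO. IC50 came from inhibition curves.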
(ADP-Glo turns the ADP formed in a reaction into a luminescent signal.)
Regarding `CC(c1c(F)c(Cl)c(-c2ccc3nc(NC(=O)[C@@H]4C[C@@H]4F)cn3c2)c2cn[nH]c12)S(C)(=O)=O` (stereo partly drawn) [Example 444, (1S,2S)-N-(6-(5-chloro-6-fluoro-7-(1-(methylsulfonyl)ethyl)-1H-indazol-4-yl)imidazo[1,2-a]pyridin-2-yl)-2-fluorocyclopropane-1-carboxamide], the 50% inhibitory concentration (IC50) is < 100 nM. Regarding `CCSc1c(F)c(Cl)c(-c2ccn3nc(NC(=O)[C@@H]4C[C@@H]4F)cc3c2)c2cn[nH]c12` [Example 621, (1S,2S)-N-(5-(5-chloro-7-(ethylthio)-6-fluoro-1H-indazol-4-yl)pyrazolo[1,5-a]pyridin-2-yl)-2-fluorocyclopropane-1-carboxamide], the IC50 was < 100 nM.

As for `Cc1c(F)c(I)c2[nH]ncc2c1-c1ccc2nc(NC(=O)[C@@H]3C[C@@H]3F)sc2c1` [Example 67, (1S,2S)-2-fluoro-N-(6-(6-fluoro-7-iodo-5-methyl-1H-indazol-4-yl)benzo[d]thiazol-2-yl)cyclopropane-1-carboxamide], the IC50 is < 100 nM. For the molecule `CCc1c(F)c(SC)c2[nH]ncc2c1-c1ccc2nc(NC(=O)[C@@H]3C[C@@H]3F)sc2c1` [Example 103, (1S,2S)-N-(6-(5-ethyl-6-fluoro-7-(methylthio)-1H-indazol-4-yl)benzo[d]thiazol-2-yl)-2-fluorocyclopropane-1-carboxamide], the IC50 was < 100 nM. Turning to `CCN(C)c1c(F)c(Cl)c(-c2ccc3nc(NC(=O)[C@@H]4C[C@@H]4F)cn3c2)c2cn[nH]c12` [Example 306, (1S,2S)-N-(6-(5-chloro-7-(ethyl(methyl)amino)-6-fluoro-1H-indazol-4-yl)imidazo[1,2-a]pyridin-2-yl)-2-fluorocyclopropane-1-carboxamide], the IC50 was < 100 nM. In the case of `CCc1c(F)cc2[nH]ncc2c1-c1ccc2nc(NC(=O)C3CC3)cn2c1` [Example 248, N-(6-(5-ethyl-6-fluoro-1H-indazol-4-yl)imidazo[1,2-a]pyridin-2-yl)cyclopropanecarboxamide] it was < 100 nM; in that of `CN(C)CCN(C)c1c(F)c(Cl)c(-c2ccc3nc(NC(=O)[C@@H]4C[C@@H]4F)sc3c2)c2cn[nH]c12` [Example 85, (1S,2S)-N-(6-(5-chloro-7-((2-(dimethylamino)ethyl)(methyl)amino)-6-fluoro-1H-indazol-4-yl)benzo[d]thiazol-2-yl)-2-fluorocyclopropane-1-carboxamide], < 100 nM. Consider `O=C(Nc1cc2cc(-c3c(Br)ccc4[nH]ncc34)ccn2n1)[C@@H]1C[C@@H]1F` [Example 455, (1S,2S)-N-(5-(5-bromo-1H-indazol-4-yl)pyrazolo[1,5-a]pyridin-2-yl)-2-fluorocyclopropane-1-carboxamide], for which the IC50 is < 100 nM. For the molecule `CN(CCO)c1c(F)c(Cl)c(-c2ccc3nc(NC(=O)[C@@H]4C[C@@H]4F)sc3c2)c2cn[nH]c12` [Example 93, (1S,2S)-N-(6-(5-chloro-6-fluoro-7-((2-hydroxyethyl)(methyl)amino)-1H-indazol-4-yl)benzo[d]thiazol-2-yl)-2-fluorocyclopropanecarboxamide], the IC50 is < 100 nM. `CN(C)c1c(F)cc(-c2ccc3nc(NC(=O)[C@@H]4C[C@@H]4F)sc3c2)c2cn[nH]c12` [Example 139, (1S,2S)-N-(6-(7-(dimethylamino)-6-fluoro-1H-indazol-4-yl)benzo[d]thiazol-2-yl)-2-fluorocyclopropane-1-carboxamide]: the IC50 was < 100 nM. Take `CC(=O)Nc1c(F)c(C)c(-c2ccc3nc(NC(=O)[C@@H]4C[C@@H]4F)sc3n2)c2cn[nH]c12` [Example 181, (1S,2S)-N-(5-(7-acetamido-6-fluoro-5-methyl-1H-indazol-4-yl)thiazolo[5,4-b]pyridin-2-yl)-2-fluorocyclopropane-1-carboxamide]: the IC50 lay within 101 to 500 nM. On to `CN(C)c1ccc2[nH]ncc2c1-c1ccn2nc(NC(=O)[C@@H]3C[C@@H]3F)cc2c1` [Example 450, (1S,2S)-N-(5-(5-(dimethylamino)-1H-indazol-4-yl)pyrazolo[1,5-a]pyridin-2-yl)-2-fluorocyclopropane-1-carboxamide], for which the IC50 was > 1000 nM. With `C[C@@H](c1c(F)c(Cl)c(-c2ccc3nc(NC(=O)[C@@H]4C[C@@H]4F)cn3c2)c2cn[nH]c12)n1ncnn1` [Example 408, (1S,2S)-N-(6-(7-((S)-1-(2H-tetrazol-2-yl)ethyl)-5-chloro-6-fluoro-1H-indazol-4-yl)imidazo[1,2-a]pyridin-2-yl)-2-fluorocyclopropane-1-carboxamide], the half-maximal inhibitory concentration (IC50) is < 100 nM.

With `O=C(Nc1nc2ccc(-c3c(Cl)c(F)cc4[nH]ncc34)cc2s1)[C@@H]1C[C@@H]1F` [Example 41, (1S,2S)-N-(6-(5-chloro-6-fluoro-1H-indazol-4-yl)benzo[d]thiazol-2-yl)-2-fluorocyclopropane-1-carboxamide], the IC50 lay within 101 to 500 nM. Consider `C[S+]([O-])c1c(F)cc2[nH]ncc2c1-c1ccc2nc(NC(=O)[C@@H]3C[C@@H]3F)sc2n1` (stereo partly drawn) [Example 164, (1S,2S)-2-fluoro-N-(5-(6-fluoro-5-(methylsulfinyl)-1H-indazol-4-yl)thiazolo[5,4-b]pyridin-2-yl)cyclopropane-1-carboxamide], for which the IC50 is > 1000 nM.

Turning to `O=C(Nc1nc2ccc(-c3c(C4CC4)ccc4[nH]ncc34)cc2s1)[C@@H]1C[C@@H]1F` [Example 37, (1S,2S)-N-(6-(5-cyclopropyl-1H-indazol-4-yl)benzo[d]thiazol-2-yl)-2-fluorocyclopropane-1-carboxamide], the IC50 was 101 to 500 nM. For `CCOc1c(F)c(F)c2[nH]ncc2c1-c1ccc2nc(NC(=O)[C@@H]3C[C@@H]3F)cn2c1` [Example 357, (1S,2S)-N-(6-(5-ethoxy-6,7-difluoro-1H-indazol-4-yl)imidazo[1,2-a]pyridin-2-yl)-2-fluorocyclopropane-1-carboxamide] the value was < 100 nM; for `CS(=O)(=O)c1c(F)c(Cl)c(-c2ccn3nc(NC(=O)[C@@H]4C[C@@H]4F)cc3c2)c2cn[nH]c12` [Example 486, (1S,2S)-N-(5-(5-chloro-6-fluoro-7-(methylsulfonyl)-1H-indazol-4-yl)pyrazolo[1,5-a]pyridin-2-yl)-2-fluorocyclopropane-1-carboxamide], < 100 nM. As to `O=C(Nc1nc2ccc(-c3c(C(F)(F)F)ccc4[nH]ncc34)cc2s1)C1CC1` [Example 17, N-(6-(5-(trifluoromethyl)-1H-indazol-4-yl)benzo[d]thiazol-2-yl)cyclopropanecarboxamide], the 50% inhibitory concentration (IC50) fell in the range of 101 to 500 nM. For the molecule `CCc1c(F)c(SC)c2[nH]ncc2c1-c1ccn2nc(NC(=O)[C@@H]3C[C@@H]3F)cc2c1` [Example 513, (1S,2S)-N-(5-(5-ethyl-6-fluoro-7-(methylthio)-1H-indazol-4-yl)pyrazolo[1,5-a]pyridin-2-yl)-2-fluorocyclopropane-1-carboxamide dihydrochloride], the IC50 was < 100 nM. As for `COC(=O)c1c(F)c(Cl)c(-c2ccc3nc(NC(=O)[C@@H]4C[C@@H]4F)sc3c2)c2cn[nH]c12` [Example 122, methyl 5-chloro-6-fluoro-4-(2-((1S,2S)-2-fluorocyclopropane-1-carboxamido)benzo[d]thiazol-6-yl)-1H-indazole-7-carboxylate], the IC50 was < 100 nM.

Consider `CN1CCN(c2c(F)c(Cl)c(-c3ccc4nc(NC(=O)[C@@H]5C[C@@H]5F)cn4c3)c3cn[nH]c23)CC1` [Example 277, (1S,2S)-N-(6-(5-chloro-6-fluoro-7-(4-methylpiperazin-1-yl)-1H-indazol-4-yl)imidazo[1,2-a]pyridin-2-yl)-2-fluorocyclopropane-1-carboxamide], for which the IC50 was 101 to 500 nM. With `O=C(Nc1cn2cc(-c3c(Cl)c(F)c(C4CCCC4)c4[nH]ncc34)ccc2n1)[C@@H]1C[C@@H]1F` [Example 406, (1S,2S)-N-(6-(5-chloro-7-cyclopentyl-6-fluoro-1H-indazol-4-yl)imidazo[1,2-a]pyridin-2-yl)-2-fluorocyclopropane-1-carboxamide], the half-maximal inhibitory concentration (IC50) is < 100 nM. As to `CNNc1c(F)c(Cl)c(-c2ccc3nc(NC(=O)[C@@H]4C[C@@H]4F)sc3c2)c2cn[nH]c12` [Example 115, (1S,2S)-N-(6-(5-chloro-6-fluoro-7-(2-methylhydrazineyl)-1H-indazol-4-yl)benzo[d]thiazol-2-yl)-2-fluorocyclopropane-1-carboxamide], the IC50 is < 100 nM.

With `CNC(=O)OCCSc1c(F)c(C)c(-c2ccc3nc(NC(=O)[C@@H]4C[C@@H]4F)cn3c2)c2cn[nH]c12` [Example 312, 2-((6-fluoro-4-(2-((1S,2S)-2-fluorocyclopropane-1-carboxamido)imidazo[1,2-a]pyridin-6-yl)-5-methyl-1H-indazol-7-yl)thio)ethyl methylcarbamate], the 50% inhibitory concentration (IC50) is < 100 nM.

In the case of `O=C(Nc1cn2cc(-c3c(Cl)c(F)c(Cn4cnnn4)c4[nH]ncc34)ccc2n1)[C@@H]1C[C@@H]1F` [Example 392, (1S,2S)-N-(6-(7-((1-tetrazol-1-yl)methyl)-5-chloro-6-fluoro-1H-indazol-4-yl)imidazo[1,2-a]pyridin-2-yl)-2-fluorocyclopropane-1-carboxamide], the IC50 was < 100 nM. `N#Cc1c(F)cc2[nH]ncc2c1-c1ccc2nc(NC(=O)[C@@H]3C[C@@H]3F)sc2n1` [Example 157, (1S,2S)-N-(5-(5-cyano-6-fluoro-1H-indazol-4-yl)thiazolo[5,4-b]pyridin-2-yl)-2-fluorocyclopropane-1-carboxamide]: the IC50 is 101 to 500 nM. Take `Cc1c(F)c(C)c2[nH]ncc2c1-c1ccc2nc(NC(=O)[C@@H]3C[C@@H]3F)cn2c1` [Example 257, (1S,2S)-2-fluoro-N-(6-(6-fluoro-5,7-dimethyl-1H-indazol-4-yl)imidazo[1,2-a]pyridin-2-yl)cyclopropane-1-carboxamide]: the IC50 was < 100 nM.

Take `CC(C)Nc1c(F)c(Cl)c(-c2cc(N)c3nc(NC(=O)[C@@H]4C[C@@H]4F)cn3c2)c2cn[nH]c12` [Example 403, (1S,2S)-N-(8-amino-6-(5-chloro-6-fluoro-7-(isopropylamino)-1H-indazol-4-yl)imidazo[1,2-a]pyridin-2-yl)-2-fluorocyclopropane-1-carboxamide. 1 formic acid]: the IC50 was > 1000 nM.
